Where only a bound is given, the exact number is not on record here.

The first assay deals with human recombinant GPR65 (Homo sapiens, UniProt Q8IYL9). The assay is described as follows: Human GPR65 cAMP HTRF antagonist assay.
human recombinant GPR65, sequence (Q8IYL9 whole entry): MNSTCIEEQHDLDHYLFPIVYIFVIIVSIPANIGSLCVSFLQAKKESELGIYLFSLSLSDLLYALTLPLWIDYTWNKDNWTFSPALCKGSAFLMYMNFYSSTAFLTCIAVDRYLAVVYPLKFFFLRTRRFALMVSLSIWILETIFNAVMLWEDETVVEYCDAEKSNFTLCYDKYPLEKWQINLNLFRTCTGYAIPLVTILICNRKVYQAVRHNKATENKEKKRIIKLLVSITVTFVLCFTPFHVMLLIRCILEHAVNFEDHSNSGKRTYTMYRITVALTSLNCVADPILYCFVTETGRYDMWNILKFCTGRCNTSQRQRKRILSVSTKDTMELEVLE
Details: not given
It is filed as cell-based. Put shortly:
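1321N1 astrocytoma cells stably expressing hrGPR65, with IBMX and EDTA, were preincubated with compound 30 min at room temperature, then acid-activated at assay pH 7.2 (control pH 7.9) for 30 min. cAMP read by HTRF (665/620 nm ratio); IC50 from 4-parameter fit normalised to high/low controls.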
By IC50 is commonly meant the concentration that inhibits the measured activity by half. Consider `O=C(Nc1cc(Br)c(C(F)(F)F)cc1F)N1[C@H]2CC[C@@H]1c1c[nH]c(=O)nc1C2` [Compound 28, (5R,8S)-N-(5-Bromo-2-fluoro-4-(trifluoromethyl)phenyl)-2-oxo-3,5,6,7,8,9-hexahydro-2H-5,8-epiminocyclohepta[d]pyrimidine-10-carboxamide], for which the IC50 was less than 500 nM.

As to `O=C(Nc1cc(Cl)c(COc2ccc3nonc3c2)cc1F)N1[C@H]2CC[C@@H]1c1n[nH]c(=O)cc1C2` [Compound 302, (6S,9R)-N-(4-((Benzo[c][1,2,5]oxadiazol-5-yloxy)methyl)-5-chloro-2-fluorophenyl)-3-oxo-3,5,6,7,8,9-hexahydro-2H-6,9-epiminocyclohepta[c]pyridazine-10-carboxamide], the 50% inhibitory concentration (IC50) is less than 500 nM.

For `O=C(Nc1cc(Cl)c(-c2ccc(OCCF)nc2)cc1F)N1[C@H]2CC[C@@H]1c1n[nH]c(=O)cc1C2` [Compound 291, (6S,9R)-N-(5-Chloro-2-fluoro-4-(6-(2-fluoroethoxy)pyridin-3-yl)phenyl)-3-oxo-3,5,6,7,8,9-hexahydro-2H-6,9-epiminocyclohepta[c]pyridazine-10-carboxamide], the IC50 was less than 500 nM.

With `CCOc1ccc(-c2cc(F)c(NC(=O)N3[C@H]4CC[C@@H]3c3ccnc(F)c3C4)cc2Cl)cn1` [Compound 263, (5R,8S)-N-(5-Chloro-4-(6-ethoxypyridin-3-yl)-2-fluorophenyl)-1-fluoro-6,7,8,9-tetrahydro-5H-5,8-epiminocyclohepta[c]pyridine-10-carboxamide], the IC50 is less than 500 nM.

As for `O=C(Nc1cc(Cl)c(-c2cncc(F)c2)cn1)N1[C@H]2CC[C@@H]1c1n[nH]c(=O)cc1C2` [Compound 229, (6S,9R)-N-(4-Chloro-5′-fluoro-[3,3′-bipyridin]-6-yl)-3-oxo-3,5,6,7,8,9-hexahydro-2H-6,9-epiminocyclohepta[c]pyridazine-10-carboxamide], the IC50 is less than 500 nM.

`O=C(Nc1cc(Cl)c(-c2ccc(OC3CCOC3)nc2)cc1F)N1[C@H]2CC[C@@H]1c1n[nH]c(=O)cc1C2` (stereo partly drawn) [Compound 342, (6S,9R)-N-(5-Chloro-2-fluoro-4-(6-((tetrahydrofuran-3-yl)oxy)pyridin-3-yl)phenyl)-3-oxo-3,5,6,7,8,9-hexahydro-2H-6,9-epiminocyclohepta[c]pyridazine-10-carboxamide]: the concentration for half-maximal inhibition (IC50) is less than 500 nM.

For the molecule `COc1ccc(-c2cc(F)c(NC(=O)N3[C@H]4CC[C@@H]3c3c[nH]c(=O)cc3C4)cc2F)cn1` [Compound 246, (6S,9R)-N-(2,5-Difluoro-4-(6-methoxypyridin-3-yl)phenyl)-3-oxo-3,5,6,7,8,9-hexahydro-2H-6,9-epiminocyclohepta[c]pyridine-10-carboxamide], the IC50 is less than 500 nM.

For `O=C(Nc1cc(Cl)c(-c2ccc(OCC3CC3(F)F)nc2)cc1F)N1[C@H]2CC[C@@H]1c1n[nH]c(=O)cc1C2` (stereo partly drawn) [Compound 338, (6S,9R)-N-(5-Chloro-4-(6-((2,2-difluorocyclopropyl)methoxy)pyridin-3-yl)-2-fluorophenyl)-3-oxo-3,5,6,7,8,9-hexahydro-2H-6,9-epiminocyclohepta[c]pyridazine-10-carboxamide], the IC50 is less than 500 nM.

As for `O=C(Nc1cc(Cl)c(Cl)cc1F)N1[C@H]2CC[C@@H]1c1c(OCc3ccccc3)cnc(F)c1C2` [Compound 102, (5R,8S)-4-(benzyloxy)-N-(4,5-dichloro-2-fluorophenyl)-1-fluoro-6,7,8,9-tetrahydro-5H-5,8-epiminocyclohepta[c]pyridine-10-carboxamide], the 50% inhibitory concentration (IC50) is less than 500 nM.

`O=C(Nc1cc(Cl)c(-c2ccccc2)cc1F)N1[C@H]2CC[C@@H]1c1ccnc(F)c1C2` [Compound 250, (5R,8S)-N-(2-Chloro-5-fluoro-[1,1′-biphenyl]-4-yl)-1-fluoro-6,7,8,9-tetrahydro-5H-5,8-epiminocyclohepta[c]pyridine-10-carboxamide]: the IC50 was less than 500 nM.

Turning to `O=C(Nc1cc(Cl)c(C2CC2)cc1F)N1[C@H]2CC[C@@H]1c1ccnc(F)c1C2` [Compound 63, (5R,8S)-N-(5-Chloro-4-cyclopropyl-2-fluorophenyl)-1-fluoro-6,7,8,9-tetrahydro-5H-5,8-epiminocyclohepta[c]pyridine-10-carboxamide], the IC50 was less than 500 nM.

Regarding `O=C(Nc1cc(Cl)c(C(F)(F)F)cc1F)N1[C@H]2CC[C@@H]1c1c[nH]c(=O)nc1C2` [Compound 24, (5R,8S)-N-(5-Chloro-2-fluoro-4-(trifluoromethyl)phenyl)-2-oxo-3,5,6,7,8,9-hexahydro-2H-5,8-epiminocyclohepta[d]pyrimidine-10-carboxamide], the 50% inhibitory concentration (IC50) was less than 500 nM.

As for `O=C(Nc1cc(Cl)c(I)cc1F)N1C2CCC1c1n[nH]c(=O)cc1C2` (racemic) [Compound 74, (±)-N-(5-Chloro-2-fluoro-4-iodophenyl)-3-oxo-3,5,6,7,8,9-hexahydro-2H-6,9-epiminocyclohepta[c]pyridazine-10-carboxamide], the IC50 is less than 500 nM.

For the molecule `O=C(Nc1cc(Cl)c(-c2cc(F)cnc2F)cc1F)N1[C@H]2CC[C@@H]1c1n[nH]c(=O)cc1C2` [Compound 182, (6S,9R)-N-(5-Chloro-4-(2,5-difluoropyridin-3-yl)-2-fluorophenyl)-3-oxo-3,5,6,7,8,9-hexahydro-2H-6,9-epiminocyclohepta[c]pyridazine-10-carboxamide], the concentration for half-maximal inhibition (IC50) is less than 500 nM.

As for `N#Cc1cncc(-c2cc(F)c(NC(=O)N3[C@H]4CC[C@@H]3c3n[nH]c(=O)cc3C4)cc2Cl)c1` [Compound 127, (6S,9R)-N-(5-Chloro-4-(5-cyanopyridin-3-yl)-2-fluorophenyl)-3-oxo-3,5,6,7,8,9-hexahydro-2H-6,9-epiminocyclohepta[c]pyridazine-10-carboxamide], the concentration for half-maximal inhibition (IC50) was less than 500 nM.

For the molecule `COc1cc(-c2cc(F)c(NC(=O)N3[C@H]4CC[C@@H]3c3n[nH]c(=O)cc3C4)cc2Cl)ccn1` [Compound 199, (6S,9R)-N-(5-Chloro-2-fluoro-4-(2-methoxypyridin-4-yl)phenyl)-3-oxo-3,5,6,7,8,9-hexahydro-2H-6,9-epiminocyclohepta[c]pyridazine-10-carboxamide], the IC50 is less than 500 nM.

As for `O=C(Nc1cc(Cl)c(-c2ccccc2)cc1F)N1[C@H]2CC[C@@H]1c1c[nH]c(=O)cc1C2` [Compound 251, (6S,9R)-N-(2-Chloro-5-fluoro-[1,1′-biphenyl]-4-yl)-3-oxo-3,5,6,7,8,9-hexahydro-2H-6,9-epiminocyclohepta[c]pyridine-10-carboxamide], the IC50 was less than 500 nM.

`O=C(Nc1cc(Cl)c(-c2ccc(OC3CC3)nc2)cc1F)N1[C@H]2CC[C@@H]1c1n[nH]c(=O)cc1C2` [Compound 221, (6S,9R)-N-(5-Chloro-4-(6-cyclopropoxypyridin-3-yl)-2-fluorophenyl)-3-oxo-3,5,6,7,8,9-hexahydro-2H-6,9-epiminocyclohepta[c]pyridazine-10-carboxamide]: the concentration for half-maximal inhibition (IC50) was less than 500 nM.

With `Cn1ncc(-c2cc(F)c(NC(=O)N3[C@H]4CC[C@@H]3c3n[nH]c(=O)cc3C4)cc2Cl)n1` [Compound 139, (6S,9R)-N-(5-Chloro-2-fluoro-4-(2-methyl-2H-1,2,3-triazol-4-yl)phenyl)-3-oxo-3,5,6,7,8,9-hexahydro-2H-6,9-epiminocyclohepta[c]pyridazine-10-carboxamide], the IC50 was less than 500 nM.

Regarding `O=C(Nc1cc(Br)c(Cl)cc1F)N1C2CCC1c1n[nH]c(=O)cc1C2` (racemic) [Compound 7, (±)-N-(5-Bromo-4-chloro-2-fluorophenyl)-3-oxo-3,5,6,7,8,9-hexahydro-2H-6,9-epiminocyclohepta[c]pyridazine-10-carboxamide], the IC50 is less than 500 nM.

Take `O=C(Nc1cc(F)c(-c2ccc(F)nc2)cc1F)N1[C@H]2CC[C@@H]1c1ccnc(F)c1C2` [Compound 242, (5R,8S)-N-(2,5-Difluoro-4-(6-fluoropyridin-3-yl)phenyl)-1-fluoro-6,7,8,9-tetrahydro-5H-5,8-epiminocyclohepta[c]pyridine-10-carboxamide]: the 50% inhibitory concentration (IC50) is less than 500 nM.

Regarding `O=C(Nc1cc(Cl)c(-c2ccc(OCC3CC3)nc2)cc1F)N1[C@H]2CC[C@@H]1c1n[nH]c(=O)cc1C2` [Compound 318, (6S,9R)-N-(5-Chloro-4-(6-(cyclopropylmethoxy)pyridin-3-yl)-2-fluorophenyl)-3-oxo-3,5,6,7,8,9-hexahydro-2H-6,9-epiminocyclohepta[c]pyridazine-10-carboxamide], the 50% inhibitory concentration (IC50) was less than 500 nM.

As for `O=C(Nc1cc(Cl)c(Br)cc1F)N1[C@H]2CC[C@@H]1c1c[nH]c(=O)nc1C2` [Compound 23, (5R,8S)-N-(4-Bromo-5-chloro-2-fluorophenyl)-2-oxo-3,5,6,7,8,9-hexahydro-2H-5,8-epiminocyclohepta[d]pyrimidine-10-carboxamide], the IC50 is less than 500 nM.

With `O=C(Nc1ccc(Br)c(C(F)(F)F)c1)N1[C@@H]2CC[C@H]1c1n[nH]c(=O)cc1C2` [Compound 48, (6R,9S)-N-(4-Bromo-3-(trifluoromethyl)phenyl)-3-oxo-3,5,6,7,8,9-hexahydro-2H-6,9-epiminocyclohepta[c]pyridazine-10-carboxamide], the IC50 lay within 500 to 5000 nM.

The same assay, now with this note: 1321N1-hrGPR65 cells, cAMP HTRF, assay pH 7.2; read-out: hGPR65 IC50 (Activity of selected compounds according to the invention).
Take `COCc1ccncc1-c1cc(F)c(NC(=O)N2[C@H]3CC[C@@H]2c2n[nH]c(=O)cc2C3)cc1Cl` [Compound 192, (6S,9R)-N-(5-Chloro-2-fluoro-4-(4-(methoxymethyl)pyridin-3-yl)phenyl)-3-oxo-3,5,6,7,8,9-hexahydro-2H-6,9-epiminocyclohepta[c]pyridazine-10-carboxamide]: the IC50 was 500 to 5000 nM.

On to `O=C(Nc1cc(Cl)c(C(F)(F)F)cc1F)N1C2CC[C@@H]1c1ccnc(F)c1C2O` (mixture of isomers) [Compound 204, (±)—(R)—N-(5-chloro-2-fluoro-4-(trifluoromethyl)phenyl)-1-fluoro-9-hydroxy-6,7,8,9-tetrahydro-5H-5,8-epiminocyclohepta[c]pyridine-10-carboxamide], for which the IC50 fell in the range of 500 to 5000 nM.

Values taken from patent publication US20240368173A1, “TRICYCLIC GPR65 MODULATORS” (PATHIOS THERAPEUTICS LIMITED, priority 2021, published 2024).
